Experimental data reported in patent publication US20250129121A1, “POLYPEPTIDE, PRODUCT INCLUDING POLYPEPTIDE FOR INHIBITING FUSOBACTERIUM NUCLEATUM, OR DRUG FOR PREVENTING COLORECTAL CANCER” (priority 2022, published 2025).
≈ marks a conversion by molar mass, not a printed value. Where a SMILES comes first, the peptide text is derived from it.

Legend:
[1] = system: F. nucleatum-induced colorectal cancer; assay: F. nucleatum-enhanced colorectal cancer animal model; type: in vivo, C57BL APC^min mouse; details: 20 mg/kg per day intragastrically for 7 d, compared with Fn+H2O group
Source text: A. To verify the antibacterial effects of the F. nucleatum-specific antimicrobial peptides in vivo for F. nucleatum and especially the preventive effects of the F. nucleatum-specific antimicrobial peptides for F. nucleatum-induced diseases, an F. nucleatum-enhanced colorectal cancer animal model (i.e. the C57BL APC^min mouse orally administered with F. nucleatum) was adopted in this example. As shown in FIG. 20: C57BL APC^min mice were selected and intragastrically administered with F. nucleatum 25586 three times a week as an F. nucleatum intragastric administration group. Mice in a control group were intragastrically administered with an equal amount of PBS every week (PBS intragastric administration group). On the second day of intragastric administration in the first week, mice each were treated with 2.5% dextran sulfate sodium (DSS) consecutively for 3 d to improve the colonization of F. nucleatum. B. Mice were intragastrically administered with the antimicrobial peptide P8 or P11 for treatment in the sixth week, and mice in the control group were intragastrically administered with pure water. Each mouse was intragastrically administered at 20 mg/kg per day consecutively for 7 d. Then, mice were euthanized, and the tumor number and size were recorded.

[2] = system: other strains; assay: Antimicrobial activity against strains other than F. nucleatum (bactericidal specificity); type: cell-based; details: test strains other than F. nucleatum
Protocol: (§1) A. Each polypeptide was prepared into a specified stock solution for later use. Minimum inhibitory concentrations (MICs) of the polypeptides P1 to P12 were determined by a broth microdilution method. With 0.01% acetic acid (including 0.2% of bovine serum albumin (BSA)) as a diluent, a series of gradient antimicrobial peptide solutions were prepared by a two-fold dilution method.
(§2) B. 100 μL of each polypeptide stock solution was taken and added to a 96-well cell culture plate, and then each strain solution to be tested (about 10^5/mL) was added in an equal volume to each well. A positive control (including a strain solution, but not including a polypeptide) and a negative control (including neither a strain solution nor a polypeptide). Strains to be tested include Escherichia coli Nissile 1917, Vibrio cholerae H1, Pseudomonas aeruginosa PAO1, F. nucleatum 25586, F. nucleatum 10953, Bifidobacterium uniformis 6597, Lactobacillus acidophilus 6075, Bifidobacterium longum 6194Lactobacillus rhamnosus 6141, and Streptococcus agalactiae H94.
(§3) C. The cell culture plate was incubated at a constant temperature of 37° C. for 20 h, and MIC was recorded when the turbidity was not observed by naked eyes at a bottom of a well. The strains all were purchased from the market.

[3] = system: F. nucleatum 25586; type: cell-based, Fusobacterium nucleatum; details: 25586, 20 h
Protocol: as §1, §2, §3

[4] = system: F. nucleatum 10953; type: cell-based, Fusobacterium nucleatum; details: 10953, 20 h
Protocol: as §1, §2, §3

[5] = system: Pseudomonas aeruginosa PAO1; type: cell-based; details: PAO1, 20 h
Protocol: as §1, §2, §3

[6] = system: Bifidobacterium uniformis 6597; type: cell-based; details: 20 h
Protocol: as §1, §2, §3

[7] = system: Escherichia coli Nissile 1917; type: cell-based; details: Nissile 1917, 20 h
Protocol: as §1, §2, §3

[8] = system: Lactobacillus acidophilus 6075; type: cell-based; details: 20 h
Protocol: as §1, §2, §3

[9] = system: Streptococcus agalactiae H94; type: cell-based; details: H94, 20 h
Protocol: as §1, §2, §3

[10] = system: Bifidobacterium longum 6194; type: cell-based; details: 20 h
Protocol: as §1, §2, §3

[11] = system: Lactobacillus rhamnosus 6141; type: cell-based; details: 20 h
Protocol: as §1, §2, §3

SMILES | tumor diameter [1] | tumor number [1] | antimicrobial activity against other strains [2] | MIC Fusobacterium nucleatum 25586 [3] | MIC Fusobacterium nucleatum 10953 [4] | MIC Pseudomonas aeruginosa PAO1 [5] | MIC Bifidobacteriu muniformis 6597 [6] | MIC Escherichia coli nissile1917 [7] | MIC Lactobacillus acidophilus 6075 [8] | MIC Streptococcus agalactiae H94 [9] | MIC Bifidobacterium longum 6194 [10] | MIC Lactobacterium rhamnosus 6141 [11]
N=C(N)NCCC[C@H](NC(=O)CNC(=O)[C@@H]1CCCN1C(=O)[C@H](CCCNC(=N)N)NC(=O)[C@H](Cc1c[nH]c2ccccc12)NC(=O)[C@H](CCCCN)NC(=O)[C@H](Cc1c[nH]c2ccccc12)NC(=O)[C@H](CCCNC(=N)N)NC(=O)[C@H](Cc1c[nH]c2ccccc12)NC(=O)[C@H](CCCCN)NC(=O)[C@@H](N)Cc1c[nH]c2ccccc12)C(=O)N[C@@H](Cc1c[nH]c2ccccc12)C(=O)N[C@@H](CCCCN)C(=O)N[C@@H](Cc1c[nH]c2ccccc12)C(=O)N[C@@H](CCCNC(=N)N)C(=O)N[C@@H](Cc1c[nH]c2ccccc12)C(=O)N[C@@H](CCCCN)C(=O)N[C@@H](Cc1c[nH]c2ccccc12)C(=O)O [P11, WKWRWKWRPGRWKWRWKW] (H-WKWRWKWRPGRWKWRWKW-OH; N-terminus assumed) | relatively small | relatively small | weak antimicrobial activity | 4 µM (≈ 11.2 µg/mL) | 16 µM (≈ 44.8 µg/mL) | 32 µM (≈ 89.6 µg/mL) | 8 µM (≈ 22.4 µg/mL) | 64 µM (≈ 179 µg/mL) | 32 µM (≈ 89.6 µg/mL) | 64 µM (≈ 179 µg/mL) | 16 µM (≈ 44.8 µg/mL) | >64 µM
N=C(N)NCCC[C@H](NC(=O)CNC(=O)[C@@H]1CCCN1C(=O)[C@H](CCCNC(=N)N)NC(=O)[C@H](Cc1c[nH]c2ccccc12)NC(=O)[C@H](Cc1c[nH]cn1)NC(=O)[C@H](Cc1c[nH]c2ccccc12)NC(=O)[C@H](CCCNC(=N)N)NC(=O)[C@H](Cc1c[nH]c2ccccc12)NC(=O)[C@H](Cc1c[nH]cn1)NC(=O)[C@@H](N)Cc1c[nH]c2ccccc12)C(=O)N[C@@H](Cc1c[nH]c2ccccc12)C(=O)N[C@@H](Cc1c[nH]cn1)C(=O)N[C@@H](Cc1c[nH]c2ccccc12)C(=O)N[C@@H](CCCNC(=N)N)C(=O)N[C@@H](Cc1c[nH]c2ccccc12)C(=O)N[C@@H](Cc1c[nH]cn1)C(=O)N[C@@H](Cc1c[nH]c2ccccc12)C(=O)O [P8, WHWRWHWRPGRWHWRWHW] (H-WHWRWHWRPGRWHWRWHW-OH; N-terminus assumed) | relatively small | relatively small | weak antimicrobial activity | 8 µM (≈ 22.7 µg/mL) | 4 µM (≈ 11.3 µg/mL) | >64 µM | >64 µM | >64 µM | 32 µM (≈ 90.7 µg/mL) | >64 µM | >64 µM | >64 µM
N=C(N)NCCC[C@H](NC(=O)CNC(=O)[C@@H]1CCCN1C(=O)[C@H](CCCNC(=N)N)NC(=O)[C@H](Cc1c[nH]c2ccccc12)NC(=O)[C@H](CCC(=O)O)NC(=O)[C@@H](N)Cc1c[nH]c2ccccc12)C(=O)N[C@@H](Cc1c[nH]c2ccccc12)C(=O)N[C@@H](CCC(=O)O)C(=O)N[C@@H](Cc1c[nH]c2ccccc12)C(=O)O [P1, WEWRPGRWEW] (H-WEWRPGRWEW-OH; N-terminus assumed) | – | – | – | >64 µM | >64 µM | >64 µM | >64 µM | >64 µM | >64 µM | >64 µM | >64 µM | >64 µM
N=C(N)NCCC[C@H](NC(=O)CNC(=O)[C@@H]1CCCN1C(=O)[C@H](CCCNC(=N)N)NC(=O)[C@H](Cc1c[nH]c2ccccc12)NC(=O)[C@H](CCC(=O)O)NC(=O)[C@H](Cc1c[nH]c2ccccc12)NC(=O)[C@H](Cc1c[nH]c2ccccc12)NC(=O)[C@H](CCC(=O)O)NC(=O)[C@H](Cc1c[nH]c2ccccc12)NC(=O)[C@H](CCCNC(=N)N)NC(=O)CNC(=O)[C@@H]1CCCN1C(=O)[C@H](CCCNC(=N)N)NC(=O)[C@H](Cc1c[nH]c2ccccc12)NC(=O)[C@H](CCC(=O)O)NC(=O)[C@@H](N)Cc1c[nH]c2ccccc12)C(=O)N[C@@H](Cc1c[nH]c2ccccc12)C(=O)N[C@@H](CCC(=O)O)C(=O)N[C@@H](Cc1c[nH]c2ccccc12)C(=O)O [P3] (H-WEWRPGRWEWWEWRPGRWEW-OH; N-terminus assumed) | – | – | – | >64 µM | >64 µM | >64 µM | >64 µM | >64 µM | >64 µM | >64 µM | >64 µM | >64 µM
N=C(N)NCCC[C@H](NC(=O)CNC(=O)[C@@H]1CCCN1C(=O)[C@H](CCCNC(=N)N)NC(=O)[C@H](Cc1c[nH]c2ccccc12)NC(=O)[C@H](Cc1c[nH]cn1)NC(=O)[C@@H](N)Cc1c[nH]c2ccccc12)C(=O)N[C@@H](Cc1c[nH]c2ccccc12)C(=O)N[C@@H](Cc1c[nH]cn1)C(=O)N[C@@H](Cc1c[nH]c2ccccc12)C(=O)O [P7, WHWRPGRWHW] (H-WHWRPGRWHW-OH; N-terminus assumed) | – | – | – | 64 µM (≈ 96.2 µg/mL) | 8 µM (≈ 12 µg/mL) | >64 µM | >64 µM | 64 µM (≈ 96.2 µg/mL) | 32 µM (≈ 48.1 µg/mL) | >64 µM | >64 µM | 64 µM (≈ 96.2 µg/mL)
